In the case of `COc1cccc([C@H]2O[C@H](Cc3ncc(CC(=O)O)s3)C(=O)N(CC(C)(C)CO)c3ccc(Cl)cc32)c1OC` [Example 1, (2-{[(3R,5S)-7-chloro-5-(2,3-dimethoxyphenyl)-1-(3-hydroxy-2,2-dimethylpropyl)-2-oxo-1,2,3,5-tetrahydro-4,1-benzoxazepin-3-yl]methyl}-1,3-thiazol-5-yl)acetic acid], the melting point is 219 to 222 °C (dec.).
